Laboratory results: ChEMBL document CHEMBL5584208, “Conformationally constrained potent inhibitors for enhancer of zeste homolog 2 (EZH2)” (Bioorg Med Chem Lett, 2024)
Values belong to the compound of their own block, whether it stands above or below them.

What was measured:
[1] = AUC (0 to infinity) in mouse at 2 mg/kg, iv; format: ADME, organism-based; settings: in vivo
[2] = Oral bioavailability in mouse at 10 mg/kg; format: ADME, organism-based; settings: in vivo
[3] = Volume of distribution at steady state in mouse at 2 mg/kg, iv; format: ADME, organism-based; settings: in vivo, read-out: Vdss
[4] = AUC (0 to t) in mouse at 2 mg/kg, iv; format: ADME, organism-based; settings: in vivo
[5] = Clearance in mouse at 2 mg/kg, iv; format: ADME, organism-based; settings: in vivo
[6] = AUC (0 to t) in mouse at 10 mg/kg, po; format: ADME, organism-based; settings: in vivo
[7] = Half life in mouse at 2 mg/kg, iv; format: ADME, organism-based; settings: in vivo
[8] = AUC (0 to infinity) in mouse at 10 mg/kg, po; format: ADME, organism-based; settings: in vivo
[9] = Cmax in mouse at 10 mg/kg, po; format: ADME, organism-based; settings: in vivo
[10] = tested on: KARPAS-422; assay: Antiproliferative activity against human KARPAS-422 cells harboring EZH2 Y641N mutant; format: functional, cell-based
[11] = tested on: Pfeiffer; assay: Antiproliferative activity against human Pfeiffer cells harboring EZH2 A677G mutant; format: functional, cell-based
[12] = Half life in mouse at 10 mg/kg, po; format: ADME, organism-based; settings: in vivo
[13] = tested on: WSUDLCL2; assay: Antiproliferative activity against human WSUDLCL2 cells harboring EZH2 Y641F mutant; format: functional, cell-based
[14] = Cmax in mouse at 2 mg/kg, iv; format: ADME, organism-based; settings: in vivo
[15] = Metabolic stability in rat liver microsomes assessed as intrinsic clearance in hepatocytes measured per million cells; format: ADME, Microsome
[16] = Metabolic stability in monkey liver microsomes assessed as intrinsic clearance in liver; format: ADME, Macaca mulatta, Microsome; settings: rhesus monkey, read-out: CLH
[17] = tested on: Pfeiffer; assay: Antitumor activity against human Pfeiffer cells harboring EZH2 A677G mutant xenografted in mouse at 25 mg/kg, po qd for 28 days relative to control; format: functional; settings: 672 h, time 28 day, read-out: TGI
[18] = Metabolic stability in dog liver microsomes assessed as half life; format: ADME, Canis lupus familiaris, Microsome
[19] = Metabolic stability in monkey liver microsomes assessed as half life; format: ADME, Macaca mulatta, Microsome; settings: rhesus monkey
[20] = Metabolic stability in rat liver microsomes assessed as half life; format: ADME, Microsome
[21] = Metabolic stability in dog liver microsomes assessed as intrinsic clearance in liver; format: ADME, Canis lupus familiaris, Microsome; settings: read-out: CLH
[22] = tested on: KARPAS-422; assay: Antitumor activity against human KARPAS-422 cells harboring EZH2 Y641N mutant xenografted in mouse at 50 mg/kg, po bid for 28 days relative to control; format: functional; settings: KARPAS-422, 672 h, time 28 day, read-out: TGI
[23] = Metabolic stability in mouse liver microsomes assessed as intrinsic clearance in liver; format: ADME, Microsome; settings: read-out: CLH
[24] = Toxicity in mouse xenografted with human Pfeiffer cells harboring EZH2 A677G mutant assessed as body weight loss at 25 to 100 mg/kg, po qd for 28 days; format: organism-based; settings: in vivo, 672 h, dose 25-100 mg/kg, time 28 day
[25] = tested on: Pfeiffer; assay: Antitumor activity against human Pfeiffer cells harboring EZH2 A677G mutant xenografted in mouse assessed as reduction in tumor volume at 25 to 100 mg/kg, po qd for 28 days; format: functional; design: scale not given: the % may be the effect or the level left; settings: dose 25-100 mg/kg, time 28 day
[26] = tested on: KARPAS-422; assay: Antitumor activity against human KARPAS-422 cells harboring EZH2 Y641N mutant xenografted in mouse assessed as reduction tumor volume at 50 to 200 mg/kg, po bid for 28 days relative to control; format: functional; design: scale not given: the % may be the effect or the level left; settings: dose 50-200 mg/kg, time 28 day
[27] = tested on: Pfeiffer; assay: Antitumor activity against human Pfeiffer cells harboring EZH2 A677G mutant xenografted in mouse at 50 mg/kg, po qd for 28 days relative to control; format: functional; settings: 672 h, time 28 day, read-out: TGI
[28] = Metabolic stability in dog liver microsomes assessed as intrinsic clearance in hepatocytes measured per million cells; format: ADME, Canis lupus familiaris, Microsome
[29] = Metabolic stability in human liver microsomes assessed as intrinsic clearance in hepatocytes measured per million cells; format: ADME, Microsome
[30] = Toxicity in mouse xenografted with human KARPAS-422 cells harboring EZH2 Y641N mutant assessed as body weight loss at 50 to 200 mg/kg, po bid for 28 days; format: organism-based; settings: in vivo, 672 h, dose 50-200 mg/kg, time 28 day
[31] = tested on: Pfeiffer; assay: Antitumor activity against human Pfeiffer cells harboring EZH2 A677G mutant xenografted in mouse at 100 mg/kg, po qd for 28 days relative to control; format: functional; settings: 672 h, time 28 day, read-out: TGI
[32] = tested on: KARPAS-422; assay: Antitumor activity against human KARPAS-422 cells harboring EZH2 Y641N mutant xenografted in mouse at 200 mg/kg, po bid for 28 days relative to control; format: functional; settings: KARPAS-422, 672 h, time 28 day, read-out: TGI
[33] = Metabolic stability in monkey liver microsomes assessed as intrinsic clearance in hepatocytes measured per million cells; format: ADME, Macaca mulatta, Microsome; settings: rhesus monkey
[34] = Drug concentration in human KARPAS-422 cells harboring EZH2 Y641N mutant xenografted in mouse at 100 mg/kg, po measured after 4 hrs; format: ADME, organism-based; settings: KARPAS-422 xenograft tumour, read-out: Ct
[35] = Metabolic stability in mouse liver microsomes assessed as intrinsic clearance in hepatocytes measured per million cells; format: ADME, Microsome
[36] = Metabolic stability in human liver microsomes assessed as intrinsic clearance in liver; format: ADME, Microsome; settings: read-out: CLH
[37] = Metabolic stability in human liver microsomes assessed as half life; format: ADME, Microsome
[38] = Metabolic stability in rat liver microsomes assessed as intrinsic clearance in liver; format: ADME, Microsome; settings: read-out: CLH
[39] = tested on: KARPAS-422; assay: Antitumor activity against human KARPAS-422 cells harboring EZH2 Y641N mutant xenografted in mouse at 100 mg/kg, po bid for 28 days relative to control; format: functional; settings: KARPAS-422, 672 h, time 28 day, read-out: TGI
[40] = Metabolic stability in mouse liver microsomes assessed as half life; format: ADME, Microsome
[41] = Drug concentration in human KARPAS-422 cells harboring EZH2 Y641N mutant xenografted in mouse at 100 mg/kg, po measured after 8 hrs; format: ADME, organism-based; settings: KARPAS-422 xenograft tumour, read-out: Ct
[42] = Toxicity in mouse xenografted with human KARPAS-422 cells harboring EZH2 Y641N mutant assessed as body weight loss at 100 mg/kg, po bid for 28 days; format: organism-based; settings: in vivo, 672 h, time 28 day
[43] = Toxicity in mouse xenografted with human Pfeiffer cells harboring EZH2 A677G mutant assessed as body weight loss at 100 mg/kg, po qd for 28 days; format: organism-based; settings: in vivo, 672 h, time 28 day

Compound: CCN(c1cc(-c2ccc3c(c2)NC(=O)C32CCOCC2)cc(C(=O)NCc2c(C)cc(C)[nH]c2=O)c1C)C1CCOCC1
AUC(0-inf) [1]: 340 ng·h/mL
bioavailability [2]: 7.4%
Vd [3]: 2.61 L/kg
AUC(0-t) [4]: 331 ng·h/mL
clearance [5]: 99.7 mL/min/kg
AUC(0-t) [6]: 122 ng·h/mL
half-life [7]: 25.2 min
AUC(0-inf) [8]: 125 ng·h/mL
Cmax [9]: 152 ng/mL
IC50 [10]: 0.98 nM
IC50 [11]: 0.56 nM
half-life [12]: 37.2 min
IC50 [13]: 1.34 nM
Cmax [14]: 912 ng/mL

Compound: CCN(c1cc(-c2ccc3c(c2)N(C)CC32CCOCC2)cc(C(=O)NCc2c(C)cc(C)[nH]c2=O)c1C)C1CCOCC1
AUC(0-inf) [1]: 955 ng·h/mL
bioavailability [2]: 11.9%
Vd [3]: 0.565 L/kg
AUC(0-t) [4]: 949 ng·h/mL
clearance [5]: 34.6 mL/min/kg
AUC(0-t) [6]: 566 ng·h/mL
half-life [7]: 10.8 min
AUC(0-inf) [8]: 570 ng·h/mL
Cmax [9]: 1280 ng/mL
IC50 [10]: 1.9 nM
IC50 [11]: 1.01 nM
half-life [12]: 10.8 min
IC50 [13]: 1.9 nM
Cmax [14]: 2790 ng/mL

Compound: CCN(c1cc(-c2ccc3c(c2)NC(=O)C32CCN(C)CC2)cc(C(=O)NCc2c(C)cc(C)[nH]c2=O)c1C)C1CCOCC1
AUC(0-inf) [1]: 1230 ng·h/mL
bioavailability [2]: 0.06%
Vd [3]: 0.688 L/kg
AUC(0-t) [4]: 1230 ng·h/mL
clearance [5]: 27.9 mL/min/kg
AUC(0-t) [6]: 3.4 ng·h/mL
half-life [7]: 37.2 min
AUC(0-inf) [8]: 3.4 ng·h/mL
Cmax [9]: 13.5 ng/mL
IC50 [10]: 2.19 nM
IC50 [11]: 1.98 nM
IC50 [13]: 3.58 nM
Cmax [14]: 3680 ng/mL

The next lines start with results.

AUC(0-inf) [1]: 831 ng·h/mL
bioavailability [2]: 33%
Vd [3]: 0.803 L/kg
AUC(0-t) [4]: 818 ng·h/mL
clearance [5]: 43 mL/min/kg
AUC(0-t) [6]: 1350 ng·h/mL
half-life [7]: 19.2 min
AUC(0-inf) [8]: 1360 ng·h/mL
Cmax [9]: 1750 ng/mL
IC50 [10]: 1.79 nM
half-life [12]: 27.6 min
Cmax [14]: 2580 ng/mL
Compound: CCN1C(=O)C2(CCOCC2)c2ccc(-c3cc(C(=O)NCc4c(C)cc(C)[nH]c4=O)c(C)c(N(CC)C4CCOCC4)c3)cc21
IC50 [11]: 0.49 nM
IC50 [13]: 2.38 nM

CLH [15]: 99.9 µL/min
CLint scaled [16]: 272 mL/min/kg
AUC(0-inf) [1]: 1610 ng·h/mL
bioavailability [2]: 36.9%
Vd [3]: 0.65 L/kg
half-life [18]: 34.5 min
half-life [19]: 18.3 min
AUC(0-t) [4]: 1610 ng·h/mL
half-life [20]: 13.9 min
CLint scaled [21]: 276 mL/min/kg
CLint scaled [23]: 942 mL/min/kg
clearance [5]: 20.7 mL/min/kg
AUC(0-t) [6]: 2960 ng·h/mL
half-life [7]: 25.2 min
CLH [28]: 40.2 µL/min
CLH [29]: 17.3 µL/min
AUC(0-inf) [8]: 2970 ng·h/mL
Cmax [9]: 1700 ng/mL
CLH [33]: 75.6 µL/min
concentration at 4 h [34]: 8580 ng/mL
IC50 [10]: 1.82 nM
CLH [35]: 79.3 µL/min
CLint scaled [36]: 48 mL/min/kg
half-life [37]: 80.3 min
CLint scaled [38]: 468 mL/min/kg
half-life [12]: 40.2 min
half-life [40]: 17.5 min
concentration at 8 h [41]: 9520 ng/mL
Cmax [14]: 2400 ng/mL
Compound: CCN(c1cc(-c2ccc3c(c2)CCC3N2CCOCC2)cc(C(=O)NCc2c(C)cc(C)[nH]c2=O)c1C)C1CCOCC1 (stereo unspecified)
inhibition in vivo at 25 mg/kg [17]: 53.1%
inhibition in vivo at 50 mg/kg [22]: 16%
Activity [24]: Non-Toxic
Activity [25]: 53.1%
Activity [26]: 16%
inhibition in vivo at 50 mg/kg [27]: 68.9%
Activity [30]: Non-Toxic
inhibition in vivo at 100 mg/kg [31]: 100%
inhibition in vivo at 200 mg/kg [32]: 98%
IC50 [11]: 1.73 nM
inhibition in vivo at 100 mg/kg [39]: 52.5%
IC50 [13]: 2.36 nM

CLH [15]: 74.1 µL/min
CLint scaled [16]: 237 mL/min/kg
AUC(0-inf) [1]: 2720 ng·h/mL
bioavailability [2]: 32%
Vd [3]: 0.623 L/kg
half-life [18]: 20.8 min
half-life [19]: 21 min
AUC(0-t) [4]: 2710 ng·h/mL
half-life [20]: 18.7 min
CLint scaled [21]: 458 mL/min/kg
CLint scaled [23]: 1720 mL/min/kg
clearance [5]: 12.4 mL/min/kg
AUC(0-t) [6]: 4340 ng·h/mL
half-life [7]: 35.4 min
CLH [28]: 66.5 µL/min
CLH [29]: 23.6 µL/min
AUC(0-inf) [8]: 4370 ng·h/mL
Cmax [9]: 1950 ng/mL
CLH [33]: 65.9 µL/min
concentration at 4 h [34]: 2340 ng/mL
IC50 [10]: 3.86 nM
CLH [35]: 144.6 µL/min
CLint scaled [36]: 65.7 mL/min/kg
half-life [37]: 58.7 min
CLint scaled [38]: 347 mL/min/kg
half-life [12]: 52.8 min
half-life [40]: 9.6 min
concentration at 8 h [41]: 416 ng/mL
Cmax [14]: 2010 ng/mL
Compound: CCN(c1cc(-c2ccc(CN3CCOCC3)cc2)cc(C(=O)NCc2c(C)cc(C)[nH]c2=O)c1C)C1CCOCC1 [TAZEMETOSTAT]
Activity [42]: Non-Toxic
inhibition in vivo at 100 mg/kg [31]: 71.9%
Activity [43]: Non-Toxic
IC50 [11]: 2.26 nM
inhibition in vivo at 100 mg/kg [39]: 20.2%
IC50 [13]: 6.44 nM
